Positions of bridges follow the written chain, without caps; N, C: chain ends. Residues, ends and D or L forms follow the SMILES beside them.
Experiments:
Opioid receptor = Opioid receptor (Mus musculus, UniProt P42866+P32300+P33534); assay: Opioid receptors antagonist activity in smooth-muscle tissue mouse vas deferens (MVD); assay type: functional, tissue-based
[1] = biological target: T1, Opioid receptor (Mus musculus) (UniProt P42866+P32300+P33534); assay: Opioid receptors antagonist activity in smooth-muscle tissue mouse vas deferens (MVD) in presence of CTAP; assay type: functional, tissue-based
T1 sequence (P32300 whole entry, looked up): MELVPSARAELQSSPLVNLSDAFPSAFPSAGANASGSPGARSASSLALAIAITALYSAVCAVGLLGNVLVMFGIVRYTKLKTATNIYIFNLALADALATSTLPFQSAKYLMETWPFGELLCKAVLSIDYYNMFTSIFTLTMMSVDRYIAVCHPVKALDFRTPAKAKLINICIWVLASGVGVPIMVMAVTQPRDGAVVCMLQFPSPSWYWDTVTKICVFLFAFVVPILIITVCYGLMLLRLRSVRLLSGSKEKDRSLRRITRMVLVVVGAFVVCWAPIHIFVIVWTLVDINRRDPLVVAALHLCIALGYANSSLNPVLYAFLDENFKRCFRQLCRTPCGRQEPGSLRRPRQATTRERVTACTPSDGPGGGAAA
T1 sequence (P33534 whole entry, looked up): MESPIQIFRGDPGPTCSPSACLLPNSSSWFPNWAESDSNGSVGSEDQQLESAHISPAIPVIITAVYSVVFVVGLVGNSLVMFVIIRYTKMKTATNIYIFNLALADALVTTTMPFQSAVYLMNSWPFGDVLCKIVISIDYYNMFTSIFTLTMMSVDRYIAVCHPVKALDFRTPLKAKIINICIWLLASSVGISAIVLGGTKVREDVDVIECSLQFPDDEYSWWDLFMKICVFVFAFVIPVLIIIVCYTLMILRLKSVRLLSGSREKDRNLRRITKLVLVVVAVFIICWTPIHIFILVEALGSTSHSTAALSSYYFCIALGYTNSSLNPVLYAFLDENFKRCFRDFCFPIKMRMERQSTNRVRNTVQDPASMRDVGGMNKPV
T1 sequence (P42866 whole entry, looked up): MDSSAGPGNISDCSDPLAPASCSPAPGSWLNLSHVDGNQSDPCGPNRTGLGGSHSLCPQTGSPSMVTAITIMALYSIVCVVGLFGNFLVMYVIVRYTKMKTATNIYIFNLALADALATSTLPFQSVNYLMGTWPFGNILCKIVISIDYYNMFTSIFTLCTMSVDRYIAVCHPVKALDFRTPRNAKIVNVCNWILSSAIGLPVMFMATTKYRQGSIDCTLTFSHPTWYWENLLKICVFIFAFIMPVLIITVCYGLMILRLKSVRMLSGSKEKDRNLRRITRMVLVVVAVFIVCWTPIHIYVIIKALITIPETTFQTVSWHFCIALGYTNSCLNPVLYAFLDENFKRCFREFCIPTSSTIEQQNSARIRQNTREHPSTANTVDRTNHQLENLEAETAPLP

[2] = biological target: T1, Opioid receptor (Mus musculus); assay: Opioid receptors antagonist activity in smooth-muscle tissue mouse vas deferens (MVD) in presence of ICI; assay type: functional, tissue-based
[3] = biological target: T1, Opioid receptor (Mus musculus); assay: Opioid receptors antagonist activity in smooth-muscle tissue mouse vas deferens (MVD) in presence of NLX; assay type: functional, tissue-based
[4] = biological target: T2, Opioid receptors; mu/kappa/delta (Homo sapiens, UniProt P41145+P41143+P35372); assay: Opioid receptors antagonist activity in smooth-muscle tissue of guinea pig ileum (GPI); assay type: functional, tissue-based, Cavia porcellus; settings: target entry is the homologue from another species
T2 sequence (P35372 whole entry, looked up): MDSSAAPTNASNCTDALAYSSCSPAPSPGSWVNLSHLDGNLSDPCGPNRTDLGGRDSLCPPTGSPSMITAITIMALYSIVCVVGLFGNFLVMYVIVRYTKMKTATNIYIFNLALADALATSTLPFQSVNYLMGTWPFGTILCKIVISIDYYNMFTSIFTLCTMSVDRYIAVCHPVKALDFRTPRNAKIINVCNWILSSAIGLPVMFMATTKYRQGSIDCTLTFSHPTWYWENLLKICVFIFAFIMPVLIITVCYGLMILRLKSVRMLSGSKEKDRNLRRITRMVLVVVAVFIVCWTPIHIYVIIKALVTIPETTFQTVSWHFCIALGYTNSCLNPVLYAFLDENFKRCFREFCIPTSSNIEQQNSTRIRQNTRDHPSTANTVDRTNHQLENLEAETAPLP
T2 sequence (P41143 whole entry, looked up): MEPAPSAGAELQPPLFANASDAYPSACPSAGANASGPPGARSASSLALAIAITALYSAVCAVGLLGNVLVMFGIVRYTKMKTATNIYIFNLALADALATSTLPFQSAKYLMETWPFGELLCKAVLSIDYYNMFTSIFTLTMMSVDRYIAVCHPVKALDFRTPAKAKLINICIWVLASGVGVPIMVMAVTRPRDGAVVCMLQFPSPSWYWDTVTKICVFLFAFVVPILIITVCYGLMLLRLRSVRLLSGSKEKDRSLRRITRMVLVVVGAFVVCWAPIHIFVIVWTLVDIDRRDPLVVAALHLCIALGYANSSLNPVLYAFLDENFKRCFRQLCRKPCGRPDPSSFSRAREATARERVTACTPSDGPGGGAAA
T2 sequence (P41145 whole entry, looked up): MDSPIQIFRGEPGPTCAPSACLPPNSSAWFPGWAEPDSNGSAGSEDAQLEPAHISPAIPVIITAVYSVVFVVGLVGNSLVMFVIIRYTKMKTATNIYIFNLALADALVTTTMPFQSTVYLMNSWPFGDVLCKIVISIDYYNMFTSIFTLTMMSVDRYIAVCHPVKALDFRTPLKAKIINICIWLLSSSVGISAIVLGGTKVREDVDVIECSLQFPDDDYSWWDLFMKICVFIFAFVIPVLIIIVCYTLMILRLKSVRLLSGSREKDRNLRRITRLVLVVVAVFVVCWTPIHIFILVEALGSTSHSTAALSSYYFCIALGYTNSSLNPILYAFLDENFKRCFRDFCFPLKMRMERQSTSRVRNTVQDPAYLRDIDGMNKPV

Mu-type opioid receptor = Mu-type opioid receptor (Cavia porcellus, UniProt P97266); assay: Binding affinity against Opioid receptor mu 1 in guinea pig brain homogenate using [3H]- PL-17 as radioligand; assay type: tissue-based
Mu-type opioid receptor, sequence (P97266 whole entry): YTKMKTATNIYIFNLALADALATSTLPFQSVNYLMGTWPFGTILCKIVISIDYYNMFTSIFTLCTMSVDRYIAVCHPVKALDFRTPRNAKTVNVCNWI

[5] = biological target: T2, Opioid receptors; mu/kappa/delta; settings: Cavia porcellus; Ileum
Description: Opioid receptors antagonist activity in smooth-muscle tissue of guinea pig ileum (GPI) in presence of NLX

[6] = biological target: Kappa-type opioid receptor (Cavia porcellus, UniProt P41144); assay: Binding affinity against Opioid receptor kappa 1 in guinea pig brain homogenate using [3H]- U-69593 as radioligand; assay type: tissue-based
Kappa-type opioid receptor, sequence (P41144 whole entry): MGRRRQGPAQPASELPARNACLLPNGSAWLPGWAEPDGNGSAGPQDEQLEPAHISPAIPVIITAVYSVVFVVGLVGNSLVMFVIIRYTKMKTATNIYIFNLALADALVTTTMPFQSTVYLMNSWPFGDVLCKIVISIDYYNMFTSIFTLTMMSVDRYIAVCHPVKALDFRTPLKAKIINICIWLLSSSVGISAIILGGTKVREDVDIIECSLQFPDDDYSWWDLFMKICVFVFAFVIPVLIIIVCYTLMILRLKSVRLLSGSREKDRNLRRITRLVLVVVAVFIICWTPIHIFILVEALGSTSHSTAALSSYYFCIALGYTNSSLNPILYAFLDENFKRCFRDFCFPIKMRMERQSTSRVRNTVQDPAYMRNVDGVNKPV

[7] = biological target: T2, Opioid receptors; mu/kappa/delta; settings: Cavia porcellus; Ileum; remark: listed apart in the source
Description: Opioid receptors antagonist activity in smooth-muscle tissue of guinea pig ileum (GPI) in presence of CTAP

SMILES | IC50 (Opioid receptor) | Ke [1] | Ke [2] | Ke [3] | IC50 [4] | IC50 (Mu-type opioid receptor) | Ke [5] | IC50 [6] | Ke [7]
CC(C)C[C@H](NC(=O)[C@H](Cc1ccccc1)NC(=O)CNC(=O)CNC(=O)[C@@H](N)Cc1ccc(O)cc1)C(=O)N[C@@H](CCCN=C(N)N)C(=O)N[C@@H](CCCN=C(N)N)C(=O)N[C@@H]1CSSC[C@H](C(N)=O)NC(=O)[C@H](CC(C)C)NC(=O)[C@H](CCCCN)NC(=O)[C@@H]2CCCN2C(=O)[C@H](CCCN=C(N)N)NC1=O | 19.5 nM | 1430 nM | 1000 nM | 18.2 nM | 1.75 nM | 0.362 nM | 233 nM | – | –
CC[C@H](C)[C@H](NC(=O)[C@H](CCCNC(=N)N)NC(=O)[C@H](CCCNC(=N)N)NC(=O)[C@H](CC(C)C)NC(=O)[C@H](Cc1ccccc1)NC(=O)CNC(=O)CNC(=O)[C@@H](N)Cc1ccc(O)cc1)C(=O)N[C@@H](CCCNC(=N)N)C(=O)N1CCC[C@H]1C(=O)N[C@@H](CCCCN)C(=O)N[C@@H](CC(C)C)C(=O)N[C@@H](CCCCN)C(=O)N[C@@H](Cc1c[nH]c2ccccc12)C(=O)N[C@@H](CC(=O)O)C(=O)N[C@@H](CC(N)=O)C(=O)N[C@@H](CCC(N)=O)C(=O)O [DYNORPHIN A (1-17)] | – | – | – | – | – | – | – | 0.231 nM | –
CC[C@H](C)[C@@H]1NC(=O)[C@H](CCCN=C(N)N)NC(=O)[C@H](CCCN=C(N)N)NC(=O)[C@@H](NC(=O)[C@H](Cc2ccccc2)NC(=O)CNC(=O)CNC(=O)[C@@H](N)Cc2ccc(O)cc2)CSSC[C@@H](C(N)=O)NC(=O)[C@@H]2CCCN2C(=O)[C@H](CCCN=C(N)N)NC1=O (H-YGGFCRRIRPC-NH2; disulfide 5-11) | 421 nM | 2000 nM | 86.2 nM | 80 nM | 1080 nM | 0.027 nM | 66.7 nM | 0.285 nM | –
CC(C)C[C@@H]1NC(=O)[C@H](CCCCN)NC(=O)[C@@H]2CCCN2C(=O)[C@H](CCCN=C(N)N)NC(=O)[C@H](NC(=O)[C@H](CCCN=C(N)N)NC(=O)[C@H](CCCN=C(N)N)NC(=O)[C@H](CC(C)C)NC(=O)[C@H](Cc2ccccc2)NC(=O)CNC(=O)CNC(=O)[C@@H](N)Cc2ccc(O)cc2)CSSC[C@@H](C(N)=O)NC1=O | 24.5 nM | 370 nM | 667 nM | 30.3 nM | 2.27 nM | – | 32.3 nM | – | –
C[C@H]1NC(=O)[C@H](CCCNC(=N)N)NC(=O)[C@H](CCCNC(=N)N)NC(=O)[C@@H](NC(=O)[C@H](Cc2ccccc2)NC(=O)CNC(=O)CNC(=O)[C@@H](N)Cc2ccc(O)cc2)CSSC[C@@H](C(N)=O)NC(=O)[C@@H]2CCCN2C(=O)[C@H](CCCNC(=N)N)NC1=O | – | – | – | – | – | 2.3 nM | – | 0.391 nM | –
CC(C)C[C@@H]1NC(=O)[C@H](CCCCN)NC(=O)[C@@H]2CCCN2C(=O)[C@H](CCCN=C(N)N)NC(=O)[C@@H](NC(=O)[C@H](CCCN=C(N)N)NC(=O)[C@H](CCCN=C(N)N)NC(=O)[C@H](CC(C)C)NC(=O)[C@H](Cc2ccccc2)NC(=O)CNC(=O)CNC(=O)[C@@H](N)Cc2ccc(O)cc2)CSSC[C@@H](C(N)=O)NC1=O | 20.1 nM | 175 nM | 156 nM | 95.2 nM | 1.3 nM | 0.986 nM | 38.9 nM | 0.074 nM | –
CC(C)C[C@@H]1NC(=O)[C@H](CCCCN)NC(=O)[C@@H]2CCCN2C(=O)[C@H](CCCNC(=N)N)NC(=O)[C@H](NC(=O)[C@H](CCCNC(=N)N)NC(=O)[C@H](CCCNC(=N)N)NC(=O)[C@H](CC(C)C)NC(=O)[C@H](Cc2ccccc2)NC(=O)CNC(=O)CNC(=O)[C@@H](N)Cc2ccc(O)cc2)CSSC[C@@H](C(N)=O)NC1=O | – | – | – | – | – | 10.3 nM | – | 1.76 nM | –
CC[C@H](C)[C@H](NC(=O)[C@H](CCCN=C(N)N)NC(=O)[C@H](CCCN=C(N)N)NC(=O)[C@H](CC(C)C)NC(=O)[C@H](Cc1ccccc1)NC(=O)CNC(=O)CNC(=O)[C@@H](N)Cc1ccc(O)cc1)C(=O)N[C@@H](CCCN=C(N)N)C(=O)N1CCC[C@H]1C(=O)N[C@@H](CCCCN)C(=O)N[C@@H](CC(C)C)C(=O)N[C@@H](CCCCN)C(N)=O | 7.8 nM | – | – | 100 nM | 1.7 nM | 1.29 nM | 82 nM | 0.114 nM | 2000 nM
CC[C@H](C)[C@H](NC(=O)[C@H](CCCN=C(N)N)NC(=O)[C@H](CCCN=C(N)N)NC(=O)[C@H](CC(C)C)NC(=O)[C@H](Cc1ccccc1)NC(=O)CNC(=O)CNC(=O)[C@@H](N)Cc1ccc(O)cc1)C(=O)N[C@@H](CCCN=C(N)N)C(=O)N1CCC[C@H]1C(=O)N[C@@H](CCCCN)C(N)=O | 204 nM | – | 625 nM | 125 nM | 7.5 nM | 1.08 nM | – | – | –
C[C@H]1NC(=O)[C@H](CCCN=C(N)N)NC(=O)[C@H](CCCN=C(N)N)NC(=O)[C@@H](NC(=O)[C@H](Cc2ccccc2)NC(=O)CNC(=O)CNC(=O)[C@@H](N)Cc2ccc(O)cc2)CSSC[C@@H](C(N)=O)NC(=O)[C@@H]2CCCN2C(=O)[C@H](CCCN=C(N)N)NC1=O | 1660 nM | 500 nM | 21.3 nM | – | 4406 nM | – | – | – | 50 nM
